# In paper PMC3819915, “Stable Suppression of Lactate Dehydrogenase Activity during Anoxia in the Foot Muscle of Littorina littorea and the Potential Role of Acetylation as a Novel Posttranslational Regulatory Mechanism” (Enzyme Research, 2013):
# Key:
# [1] = test system: T1, LDH (D-lactate specific LDH, D-LDH) from foot muscle, aerobic control; experiment: NADH absorbance at […] nm, microplate; type: biochemical, Littorina littorea; conditions: assay direction not stated for this effector, presumably pyruvate-reducing (pH 6.5, 2.5 mM pyruvate, 0.25 mM NADH); 25°C; control enzyme
# T1 construct: native enzyme from foot muscle of aerobic control snails, partially purified on blue agarose; more acetylated than the 24 h anoxic form
# [2] = test system: T1, LDH (D-lactate specific LDH, D-LDH) from foot muscle, aerobic control; experiment: NADH absorbance at […] nm, microplate; type: biochemical, Littorina littorea; conditions: 25°C, control enzyme
SMILES,IC50 [1],also measured
Nc1ncnc2c1ncn2[C@@H]1O[C@H](COP(=O)(O)OP(=O)(O)O)[C@@H](O)[C@H]1O [ADP],23 ± 2 mM,
C[C@@H](O)C(=O)O [D-lactate],,"Km ([2]; D-lactate-oxidizing direction, 25 mM KH2PO4 pH 9.5, 3 mM NAD+): 25 ± 2 mM"
Nc1ncnc2c1ncn2[C@@H]1O[C@H](COP(=O)(O)OP(=O)(O)OP(=O)(O)O)[C@@H](O)[C@H]1O [ATP],13 ± 1 mM,
CC(=O)C(=O)O [pyruvate],,"Km ([2]; 25 mM KH2PO4 pH 6.5, 0.25 mM NADH): 0.29 ± 0.01 mM"
